These are literature values, as cited in patent US20020048596A1, “PREPARATION FOR THE TRANSPORT OF AN ACTIVE SUBSTANCE ACROSS BARRIERS” (priority 1999, published 2002).

Like-named read-outs stand apart in the source and are kept apart here.

Take `CCCCCCCCCC(=O)OC[C@H](COP(=O)([O-])OCC[N+](C)(C)C)OC(=O)CCCCCCCCC` [didecanoyl phosphatidyl choline]: the CMC result (unit not given) is reported as “CMC ∞ 10^−6”. For `CC(C)Cc1ccc(C(C)C(=O)O)cc1` (stereo not shown) [ibuprofen, reference compound], the solubility result is “ibuprofen, solubility ≦ 5 × 10^−5M”. As for “distearoyl glycerophosphoethanolamine triazopolyethylene glycol (5000)”, the CMC result (in water / suspension medium) is “CMC = 10^−5M”. On to distearoyl phosphomaltobionamide, for which the CMC entry (in water / suspension medium) is recorded as “CMC = 10^−5 M”.
